# Assay results reported in patent US9624184B2, “Heterocyclic compound” (TAKEDA PHARMACEUTICAL COMPANY LIMITED, priority 2013, dated 2017).
# Molecular target: T1, human CH24H (Homo sapiens, UniProt Q9Y6A2)
# T1 construct: Using Full-Length Mammalian Gene Collection No. 4819975 (Invitrogen) as a template; made in house; host or cells: FreeStyle 293-F cells (transient transfection with pcDNA3.1(+)/hCH24H); cell lysate supernatant
# Test: Measurement of CH24H inhibitory activity (24-HC produced from [14C] cholesterol by human CH24H lysate)
# Assay type: biochemical
# Details: 1 μM test compound, [14C] cholesterol 15 μM, 37° C. for 5 hr, read-out: Inhibitory Rate in 1 μM (%)
# Protocol: A plasmid DNA for expressing human CH24H in a FreeStyle 293 cell was produced as follows. Using Full-Length Mammalian Gene Collection No. 4819975 (Invitrogen) as a template, and the following two kinds of synthesized DNAs: 5′-[…]-3′ (SEQ ID NO: 1) and 5′-[…]-3′ (SEQ ID NO: 2), PCR was performed to amplify 91-1625 bp region of human CH24H (BC022539). The obtained fragment was cloned using TOPO TA Cloning Kit (Invitrogen). The obtained fragment was subcloned to pcDNA3.1(+) digested with BamHI and XhoI to give a plasmid DNA for human CH24H expression (pcDNA3.1(+)/hCH24H).
# The expression of human CH24H was performed using FreeStyle 293 Expression System (Invitrogen). According to the manual attached to FreeStyle 293 Expression System and using the plasmid DNA for human CH24H expression (pcDNA3.1(+)/hCH24H) constructed in Experimental Example 1, a transient expression using FreeStyle 293-F cell was performed. After transfection, the cells were cultured at 37° C., 8% CO2 with shaking at 125 rpm for 2 days. The cells were collected by centrifugation, and suspended in a suspension buffer (100 mM potassium phosphate (pH 7.4), 0.1 mM EDTA, 1 mM DTT, 20% Glycerol). The suspended product was disrupted by a polytron homogenizer (manufactured by Kinematica), and centrifuged at 9000×g for 10 min, and the supernatant was collected. The collected supernatant was cryopreserved (−80° C.) as a human CH24H lysate standard product.
# For the measurement of CH24H inhibitory activity, using the human CH24H lysate prepared in Experimental Example 2, the amount of 24-HC produced from cholesterol by catalytic activity of CH24H was measured in the presence of a test compound, and compared with that measured in the absence of the test compound. That is, a test compound solution at various concentrations was mixed with a reaction buffer (50 mM potassium phosphate containing 0.1% BSA and Complete, EDTA-free, pH 7.4) and human CH24H lysate. Then, [^14C] cholesterol (53 mCi/mmol specific activity, 15 μM) was added, and CH24H reaction was performed at 37° C. for 5 hr. After completion of the reaction, a quenching solution consisting of chloroform/methanol/distilled water (2:2:1 v/v) was added, and the resulting 24-HC was extracted by shaking. The extract was applied to silica gel thin layer chromatography (ethyl acetate:toluene=4:6), and the obtained ^14C-24HC fraction was measured with BAS2500 (Fujifilm Corporation).
# The inhibitory rate (%) was calculated from the ratio of radioactivity in the presence of a test compound relative to the radioactivity in the absence of the test compound.
# T1 sequence (Q9Y6A2 whole entry): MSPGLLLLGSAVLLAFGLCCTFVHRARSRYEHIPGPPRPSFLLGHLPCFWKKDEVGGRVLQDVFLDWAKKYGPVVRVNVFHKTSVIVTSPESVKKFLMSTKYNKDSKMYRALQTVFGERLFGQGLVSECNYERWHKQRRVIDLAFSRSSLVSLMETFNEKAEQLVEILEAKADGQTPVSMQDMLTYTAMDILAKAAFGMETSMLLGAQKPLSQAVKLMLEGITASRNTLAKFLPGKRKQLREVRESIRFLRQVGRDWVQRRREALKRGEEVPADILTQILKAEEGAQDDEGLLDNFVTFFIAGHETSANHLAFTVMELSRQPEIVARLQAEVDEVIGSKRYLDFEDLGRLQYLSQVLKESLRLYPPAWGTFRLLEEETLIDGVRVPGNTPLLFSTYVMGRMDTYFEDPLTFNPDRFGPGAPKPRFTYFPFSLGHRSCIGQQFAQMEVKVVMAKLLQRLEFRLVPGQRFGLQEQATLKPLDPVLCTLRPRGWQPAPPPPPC
row,SMILES,inhibition at 1 µM [%]
1,"O=C(Nc1cc(-c2cnco2)cc(C(F)(F)F)c1)c1cccc(Cl)c1 [Example 1, 3-chloro-N-(3-(1,3-oxazol-5-yl)-5-(trifluoromethyl)phenyl)benzamide]",89
2,"CC(C)c1cc(NS(=O)(=O)c2cccc(Cl)c2)cc(-c2cnco2)c1 [Example 4, 3-chloro-N-(3-isopropyl-5-(1,3-oxazol-5-yl)phenyl)benzenesulfonamide]",89
3,"O=C(Nc1cc(-c2cnco2)cc(C2CC2)c1)c1cccc(Cl)c1 [Example 5, 3-chloro-N-(3-cyclopropyl-5-(1,3-oxazol-5-yl)phenyl)benzamide]",79
4,"O=S(=O)(Nc1cc2c(c(-c3cnco3)c1)OCC2)c1cccc(Cl)c1 [Example 10, 3-chloro-N-(7-(1,3-oxazol-5-yl)-2,3-dihydro-1-benzofuran-5-yl)benzenesulfonamide]",83
5,"O=C(Nc1cc(-c2cnco2)cc(C(F)(F)F)c1)C1CC1 [Example 17, N-(3-(1,3-oxazol-5-yl)-5-(trifluoromethyl)phenyl) cyclopropanecarboxamide]",89
6,"O=C(Nc1cc(-c2cnco2)cc(C(F)F)c1)C1CC1 [Example 31, N-(3-(difluoromethyl)-5-(1,3-oxazol-5-yl)phenyl)cyclopropanecarboxamide]",90
7,"O=C(C1CC1)N1CCc2c(-c3cnco3)cc(C(F)(F)F)cc21 [Example 36, cyclopropyl(4-(1,3-oxazol-5-yl)-6-(trifluoromethyl)-2,3-dihydro-1H-indol-1-yl)methanone]",92
8,"O=C(Cn1ccnc1)Nc1cc(-c2cnco2)cc(C(F)(F)F)c1 [Example 43, 2-(1H-imidazol-1-yl)-N-(3-(1,3-oxazol-5-yl)-5-(trifluoromethyl)phenyl)acetamide]",90
9,"O=C(C1CC1)N1CCCOc2c(-c3cnco3)cc(C(F)(F)F)cc21 [Example 53, cyclopropyl(9-(1,3-oxazol-5-yl)-7-(trifluoromethyl)-3,4-dihydro-1,5-benzoxazepin-5(2H)-yl)methanone]",52
10,"O=C(C1CC1)N1CCOc2c(-c3cnco3)cc(C(F)(F)F)cc21 [Example 54, cyclopropyl(8-(1,3-oxazol-5-yl)-6-(trifluoromethyl)-2,3-dihydro-4H-1,4-benzoxazin-4-yl)methanone]",92
11,"FC(F)(F)c1cc(NCc2ccccn2)cc(-c2cnco2)c1 [Example 56, 3-(1,3-oxazol-5-yl)-N-(pyridin-2-ylmethyl)-5-(trifluoromethyl)aniline]",88
12,"O=C(Nc1cc2c(c(-c3cnco3)c1)OCC2)C1CC1 [Example 58, N-(7-(1,3-oxazol-5-yl)-2,3-dihydro-1-benzofuran-5-yl)cyclopropanecarboxamide]",84
13,"O=C(Nc1cc(C(F)(F)F)cc(-c2cnco2)n1)C1CC1 [Example 61, N-(6-(1,3-oxazol-5-yl)-4-(trifluoromethyl)pyridin-2-yl)cyclopropanecarboxamide]",88
14,"CC(C)C(=O)N1CCc2c(-c3cnco3)cc(C(F)(F)F)cc21 [Example 80, 2-methyl-1-(4-(1,3-oxazol-5-yl)-6-(trifluoromethyl)-2,3-dihydro-1H-indol-1-yl)propan-1-one]",91
15,"O=C(N1CCOCC1)N1CCc2c(-c3cnco3)cc(C(F)(F)F)cc21 [Example 83, morpholin-4-yl(4-(1,3-oxazol-5-yl)-6-(trifluoromethyl)-2,3-dihydro-1H-indol-1-yl)methanone]",92
16,"O=C(C1CCOCC1)N1CCc2c(-c3cnco3)cc(C(F)(F)F)cc21 [Example 87, (4-(1,3-oxazol-5-yl)-6-(trifluoromethyl)-2,3-dihydro-1H-indol-1-yl)(tetrahydro-2H-pyran-4-yl)methanone]",97
17,"FC1(F)CCN(c2cc(-c3cnco3)cc(C(F)(F)F)c2)CC1 [Example 89, 4,4-difluoro-1-(3-(1,3-oxazol-5-yl)-5-(trifluoromethyl)phenyl)piperidine]",93
18,"OC1(Cc2ccccc2)CCN(c2cc(-c3cnco3)cc(C(F)(F)F)c2)CC1 [Example 92, 4-benzyl-1-(3-(1,3-oxazol-5-yl)-5-(trifluoromethyl)phenyl)piperidin-4-ol]",89
19,"O[C@H]1CCN(c2cc(-c3cnco3)cc(C(F)(F)F)c2)C1 [Example 95, (3S)-1-(3-(1,3-oxazol-5-yl)-5-(trifluoromethyl)phenyl)pyrrolidin-3-ol]",96
20,"OC1CCN(c2cc(C(F)(F)F)cc(-c3cnco3)n2)C1 (stereo not drawn) [Example 96, 1-(6-(1,3-oxazol-5-yl)-4-(trifluoromethyl)pyridin-2-yl)pyrrolidin-3-ol]",91
21,"OC1CN(c2cc(-c3cnco3)cc(C(F)(F)F)c2)CCC1Cc1ccccc1 (stereo not drawn) [Example 100, 4-benzyl-1-(3-(1,3-oxazol-5-yl)-5-(trifluoromethyl)phenyl)piperidin-3-ol]",97
22,"CC(=O)N1CCN(c2cc(-c3cnco3)cc(C(F)(F)F)c2)CC1 [Example 107, 1-(4-(3-(1,3-oxazol-5-yl)-5-(trifluoromethyl)phenyl)piperazin-1-yl)ethanone]",91
23,"CS(=O)(=O)NC1CCN(c2cc(-c3cnco3)cc(C(F)(F)F)c2)C1 (stereo not drawn) [Example 119, N-(1-(3-(1,3-oxazol-5-yl)-5-(trifluoromethyl)phenyl)pyrrolidin-3-yl)methanesulfonamide]",95
24,"CC1(C)CCN(c2cc(-c3cnco3)cc(C(F)(F)F)c2)C1=O [Example 127, 3,3-dimethyl-1-(3-(1,3-oxazol-5-yl)-5-(trifluoromethyl)phenyl)pyrrolidin-2-one]",91
25,"O=C(N1CCc2c(-c3cnco3)cc(C(F)(F)F)cc21)N1C[C@@H]2C[C@H]1CO2 [Example 128, (1S,4S)-2-oxa-5-azabicyclo[2.2.1]hept-5-yl(4-(1,3-oxazol-5-yl)-6-(trifluoromethyl)-2,3-dihydro-1H-indol-1-yl)methanone]",97
26,"CC1(C)CCN(c2cc(C(F)(F)F)cc(-c3cnco3)n2)C1=O [Example 134, 3,3-dimethyl-1-(6-(1,3-ozazol-5-yl)-4-(trifluoromethyl)pyridin-2-yl)pyrrolidin-2-one]",89

# System: 24-HC in the brain
# Test: Quantification test of 24-HC in mouse brain after repeated oral administration
# Assay type: in vivo
# Details: 10 mg/kg orally once a day for 3 days; female C57BL/6N mice; brain 24-HC at 16 hours after the third administration; relative values with the control group as 100%
# Protocol: Animals used were 6-week-old female C57BL/6N mice (3 mice/group). A test compound was suspended in a 0.5% aqueous methylcellulose [133-14255 WAKO] solution (1 mg/mL). The body weight of the mice was measured, and the solution was forcibly administered orally and repeatedly once a day for 3 days. At 16 hours after the third administration, half of the brain was harvested, and the amount of 24-HC was measured.
# The wet weight of the brain was measured, and the brain was homogenized with 4-fold amount of saline. This solution was used as a brain extract. The 24-HC in the brain extract was extracted with an acetonitrile solution (98% acetonitrile, 1.98% methanol, 0.02% formic acid), and quantified by HPLC. The average value of 24-HC amount was calculated and the results are shown in relative values with the control group as 100%.
row,SMILES,Decreasing Rate in 10 mg/kg (%)
1,"O=C(Nc1cc(-c2cnco2)cc(C(F)(F)F)c1)C1CC1 [Example 17, N-(3-(1,3-oxazol-5-yl)-5-(trifluoromethyl)phenyl) cyclopropanecarboxamide]",80
2,"O=C(C1CC1)N1CCc2c(-c3cnco3)cc(C(F)(F)F)cc21 [Example 36, cyclopropyl(4-(1,3-oxazol-5-yl)-6-(trifluoromethyl)-2,3-dihydro-1H-indol-1-yl)methanone]",73

# Same assay, conditions: 30 mg/kg orally once a day for 3 days; female C57BL/6N mice; brain 24-HC at 16 hours after the third administration; relative values with the control group as 100%
row,SMILES,Decreasing Rate in 30 mg/kg (%)
1,"O=C(C1CCOCC1)N1CCc2c(-c3cnco3)cc(C(F)(F)F)cc21 [Example 87, (4-(1,3-oxazol-5-yl)-6-(trifluoromethyl)-2,3-dihydro-1H-indol-1-yl)(tetrahydro-2H-pyran-4-yl)methanone]",56
2,"O[C@H]1CCN(c2cc(-c3cnco3)cc(C(F)(F)F)c2)C1 [Example 95, (3S)-1-(3-(1,3-oxazol-5-yl)-5-(trifluoromethyl)phenyl)pyrrolidin-3-ol]",66
